Molecules are shown by their SMILES. *1 amine or outer side, *2 acyl side, *3 side chain or, on linkers, in order; H or OH if unused. Where a SMILES comes first, the peptide text is derived from it. [ ]: non-standard residue; d: D form. The star is where a group is joined. ξ: configuration not given here. Fluorescein(5-NHCS) = O=C1OC2(c3ccc(O)cc3Oc3cc(O)ccc32)c2cc(NC(=S)*)ccc21; X18 = O=C([C@@H]1C[C@@H](O/N=C\c2ccc3c(c2)Cc2ccccc2-3)CN1[*:1])[*:2]; X10 = O=C([C@@H]1C[C@H](O/N=C\c2c(F)c(F)c(F)c(F)c2F)CN1[*:1])[*:2]; X23 = O=C([C@@H]1[C@@H](O/N=C\c2ccc(OCc3ccccc3)cc2)CCN1[*:1])[*:2]; X7 = O=C([C@@H]1[C@@H](O/N=C\c2c(F)c(F)c(F)c(F)c2F)CCN1[*:1])[*:2]; X9 = O=C([C@@H]1C[C@H](O/N=C\c2ccc([N+](=O)[O-])cc2)CN1[*:1])[*:2]; X17 = COc1ccc(/C=N\O[C@@H]2C[C@@H](C(=O)[*:2])N([*:1])C2)cc1O; X21 = O=C([C@@H]1[C@@H](O/N=C\c2cnc3ccccc3c2)CCN1[*:1])[*:2]; X36 = CC(/C=N\O[C@H]1CCN([*:1])[C@@H]1C(=O)[*:2])=C\c1ccccc1; X26 = O=C([C@@H]1C[C@@H](O/N=C\CCc2ccccc2)CN1[*:1])[*:2]; X42 = O=C([C@@H]1[C@@H](O/N=C\CCc2ccccc2)CCN1[*:1])[*:2]; X46 = O=C([C@@H]1C[C@H](O/N=C\CCc2ccccc2)CN1[*:1])[*:2]; X20 = O=C(O)CC/C=N\O[C@H]1CCN([*:1])[C@@H]1C(=O)[*:2]; ξPip = O=C(O)C1CCCCN1; Ava = NCCCCC(=O)O

The target in this assay is T1, Tumor susceptibility gene 101 protein (Homo sapiens, UniProt Q99816).
T1 sequence (Q99816 whole entry): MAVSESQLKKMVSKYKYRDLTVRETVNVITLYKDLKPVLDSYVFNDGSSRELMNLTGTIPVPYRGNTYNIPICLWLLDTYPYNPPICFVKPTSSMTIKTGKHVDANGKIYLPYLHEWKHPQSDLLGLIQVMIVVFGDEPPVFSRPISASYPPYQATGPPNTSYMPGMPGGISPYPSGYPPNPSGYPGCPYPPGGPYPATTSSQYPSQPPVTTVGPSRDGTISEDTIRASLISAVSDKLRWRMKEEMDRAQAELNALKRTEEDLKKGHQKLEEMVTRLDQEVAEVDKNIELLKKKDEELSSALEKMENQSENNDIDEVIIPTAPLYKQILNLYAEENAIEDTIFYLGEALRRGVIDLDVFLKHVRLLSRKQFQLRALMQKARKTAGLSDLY
Put plainly: Binding affinity to Tsg101.
As to `C[C@H](NC(=O)[C@@H](NC(=O)[C@@H]1CCCN1C(=O)[C@H](CCC(=O)O)NC(=O)[C@@H]1CCCN1C(=O)CCCCNC(=S)Nc1ccc2c(c1)C1(OC2=O)c2ccc(O)cc2Oc2cc(O)ccc21)[C@@H](C)O)C(=O)N1CCCCC1C(=O)N1C[C@@H](O/N=C\CCc2ccccc2)C[C@H]1C(=O)N[C@@H](CCC(=O)O)C(=O)N[C@@H](CCC(=O)O)C(N)=O` (some centres not stated) ({Fluorescein(5-NHCS)-Ava}-PEPTA[ξPip][X46]EE-NH2), the IC50 (commonly the midpoint of a concentration-inhibition curve) is 83 µM. `C[C@H](NC(=O)[C@@H](NC(=O)[C@@H]1CCCN1C(=O)[C@H](CCC(=O)O)NC(=O)[C@@H]1CCCN1C(=O)CCCCNC(=S)Nc1ccc2c(c1)C1(OC2=O)c2ccc(O)cc2Oc2cc(O)ccc21)[C@@H](C)O)C(=O)N1CCCCC1C(=O)N1CC[C@H](O/N=C\c2cnc3ccccc3c2)[C@H]1C(=O)N[C@@H](CCC(=O)O)C(=O)N[C@@H](CCC(=O)O)C(N)=O` (some centres not stated) ({Fluorescein(5-NHCS)-Ava}-PEPTA[ξPip][X21]EE-NH2) showed an IC50 of 19 µM. The same measure for `C[C@H](NC(=O)[C@@H](NC(=O)[C@@H]1CCCN1C(=O)[C@H](CCC(=O)O)NC(=O)[C@@H]1CCCN1C(=O)CCCCNC(=S)Nc1ccc2c(c1)C1(OC2=O)c2ccc(O)cc2Oc2cc(O)ccc21)[C@@H](C)O)C(=O)N1CCCCC1C(=O)N1C[C@@H](O/N=C\c2c(F)c(F)c(F)c(F)c2F)C[C@H]1C(=O)N[C@@H](CCC(=O)O)C(=O)N[C@@H](CCC(=O)O)C(N)=O` (some centres not stated) ({Fluorescein(5-NHCS)-Ava}-PEPTA[ξPip][X10]EE-NH2): 139 µM; for `C[C@H](NC(=O)[C@@H](NC(=O)[C@@H]1CCCN1C(=O)[C@H](CCC(=O)O)NC(=O)[C@@H]1CCCN1C(=O)CCCCNC(=S)Nc1ccc2c(c1)C1(OC2=O)c2ccc(O)cc2Oc2cc(O)ccc21)[C@@H](C)O)C(=O)N1CCCCC1C(=O)N1CC[C@H](O/N=C\CCC(=O)O)[C@H]1C(=O)N[C@@H](CCC(=O)O)C(=O)N[C@@H](CCC(=O)O)C(N)=O` (some centres not stated) ({Fluorescein(5-NHCS)-Ava}-PEPTA[ξPip][X20]EE-NH2): 16 µM; for `C[C@H](NC(=O)[C@@H](NC(=O)[C@@H]1CCCN1C(=O)[C@H](CCC(=O)O)NC(=O)[C@@H]1CCCN1C(=O)CCCCNC(=S)Nc1ccc2c(c1)C1(OC2=O)c2ccc(O)cc2Oc2cc(O)ccc21)[C@@H](C)O)C(=O)N1CCCCC1C(=O)N1C[C@H](O/N=C\c2ccc3c(c2)Cc2ccccc2-3)C[C@H]1C(=O)N[C@@H](CCC(=O)O)C(=O)N[C@@H](CCC(=O)O)C(N)=O` (some centres not stated) ({Fluorescein(5-NHCS)-Ava}-PEPTA[ξPip][X18]EE-NH2): 27 µM. As for `COc1ccc(/C=N\O[C@@H]2C[C@@H](C(=O)N[C@@H](CCC(=O)O)C(=O)N[C@@H](CCC(=O)O)C(N)=O)N(C(=O)C3CCCCN3C(=O)[C@H](C)NC(=O)[C@@H](NC(=O)[C@@H]3CCCN3C(=O)[C@H](CCC(=O)O)NC(=O)[C@@H]3CCCN3C(=O)CCCCNC(=S)Nc3ccc4c(c3)C3(OC4=O)c4ccc(O)cc4Oc4cc(O)ccc43)[C@@H](C)O)C2)cc1O` (some centres not stated) ({Fluorescein(5-NHCS)-Ava}-PEPTA[ξPip][X17]EE-NH2), the figure is 23 µM; as for `C[C@H](NC(=O)[C@@H](NC(=O)[C@@H]1CCCN1C(=O)[C@H](CCC(=O)O)NC(=O)[C@@H]1CCCN1C(=O)CCCCNC(=S)Nc1ccc2c(c1)C1(OC2=O)c2ccc(O)cc2Oc2cc(O)ccc21)[C@@H](C)O)C(=O)N1CCCCC1C(=O)N1CC[C@H](O/N=C\c2c(F)c(F)c(F)c(F)c2F)[C@H]1C(=O)N[C@@H](CCC(=O)O)C(=O)N[C@@H](CCC(=O)O)C(N)=O` (some centres not stated) ({Fluorescein(5-NHCS)-Ava}-PEPTA[ξPip][X7]EE-NH2), 19 µM; as for `C[C@H](NC(=O)[C@@H](NC(=O)[C@@H]1CCCN1C(=O)[C@H](CCC(=O)O)NC(=O)[C@@H]1CCCN1C(=O)CCCCNC(=S)Nc1ccc2c(c1)C1(OC2=O)c2ccc(O)cc2Oc2cc(O)ccc21)[C@@H](C)O)C(=O)N1CCCCC1C(=O)N1CC[C@H](O/N=C\c2ccc(OCc3ccccc3)cc2)[C@H]1C(=O)N[C@@H](CCC(=O)O)C(=O)N[C@@H](CCC(=O)O)C(N)=O` (some centres not stated) ({Fluorescein(5-NHCS)-Ava}-PEPTA[ξPip][X23]EE-NH2), 18 µM. The same measure for `C[C@H](NC(=O)[C@@H](NC(=O)[C@@H]1CCCN1C(=O)[C@H](CCC(=O)O)NC(=O)[C@@H]1CCCN1C(=O)CCCCNC(=S)Nc1ccc2c(c1)C1(OC2=O)c2ccc(O)cc2Oc2cc(O)ccc21)[C@@H](C)O)C(=O)N1CCCCC1C(=O)N1CC[C@H](O/N=C\CCc2ccccc2)[C@H]1C(=O)N[C@@H](CCC(=O)O)C(=O)N[C@@H](CCC(=O)O)C(N)=O` (some centres not stated) ({Fluorescein(5-NHCS)-Ava}-PEPTA[ξPip][X42]EE-NH2): 20 µM; for `C[C@H](NC(=O)[C@@H](NC(=O)[C@@H]1CCCN1C(=O)[C@H](CCC(=O)O)NC(=O)[C@@H]1CCCN1C(=O)CCCCNC(=S)Nc1ccc2c(c1)C1(OC2=O)c2ccc(O)cc2Oc2cc(O)ccc21)[C@@H](C)O)C(=O)N1CCCCC1C(=O)N1C[C@@H](O/N=C\c2ccc([N+](=O)[O-])cc2)C[C@H]1C(=O)N[C@@H](CCC(=O)O)C(=O)N[C@@H](CCC(=O)O)C(N)=O` (some centres not stated) ({Fluorescein(5-NHCS)-Ava}-PEPTA[ξPip][X9]EE-NH2): 91 µM. Molecule `CC(/C=N\O[C@H]1CCN(C(=O)C2CCCCN2C(=O)[C@H](C)NC(=O)[C@@H](NC(=O)[C@@H]2CCCN2C(=O)[C@H](CCC(=O)O)NC(=O)[C@@H]2CCCN2C(=O)CCCCNC(=S)Nc2ccc3c(c2)C2(OC3=O)c3ccc(O)cc3Oc3cc(O)ccc32)[C@@H](C)O)[C@@H]1C(=O)N[C@@H](CCC(=O)O)C(=O)N[C@@H](CCC(=O)O)C(N)=O)=C\c1ccccc1` (some centres not stated) ({Fluorescein(5-NHCS)-Ava}-PEPTA[ξPip][X36]EE-NH2) gave an IC50 of 12 µM.

Molecule `C[C@H](NC(=O)[C@@H](NC(=O)[C@@H]1CCCN1C(=O)[C@H](CCC(=O)O)NC(=O)[C@@H]1CCCN1C(=O)CCCCNC(=S)Nc1ccc2c(c1)C1(OC2=O)c2ccc(O)cc2Oc2cc(O)ccc21)[C@@H](C)O)C(=O)N1CCCCC1C(=O)N1C[C@H](O/N=C\CCc2ccccc2)C[C@H]1C(=O)N[C@@H](CCC(=O)O)C(=O)N[C@@H](CCC(=O)O)C(N)=O` (some centres not stated) ({Fluorescein(5-NHCS)-Ava}-PEPTA[ξPip][X26]EE-NH2) showed an IC50 of 26 µM.
